Laboratory results from patent publication US6518317B1, “Antiviral agents” (priority 1997, dated 2003).

Assays:
[1] = tested on: heat shock protein of 70 kDa; experiment: Induction of heat shock protein of 70 kDa in HL-60 cells (SDS-PAGE and blotting); format: cell-based, human; conditions: HL-60 cells, as Table 1
Description: (1) An RPMI 1640 medium (5 ml) containing 10% of fetal bovine serum which contained 2×10^5 cells/ml of human promyelocytic leukemia cells HL-60 (ATCC CCL-240) was placed in each well of a six-well plate, incubated at 37° C. for 24 hours in the presence of 5% of CO2, then the cyclopentenone described in the referential example L was added thereto to make its final concentration 0, 10, 20, 30, 40, 50, or 100 μM and the incubation was further continued for eight hours more.
After completion of the incubation, cell numbers were counted and the cells were recovered by centrifugation and washed with phosphate-buffered saline (PBS) to prepare cyclopentenone-treated cells. In the meanwhile, cells which were heated at 45° C. for ten minutes followed by subjecting to the same incubation were prepared as well.
The cells treated as such were subjected to an SDS-polyacrylamid gel electrophoresis (SDS-PAGE) by a method mentioned in “Molecular Cloning” [Cold Spring Harbor Laboratory Press, (1989)]. The treated cells were suspended in an SDS-PAGE sample buffer to make the concentration 2.5×10^6 cells/ml, the resulting cell suspension was treated at 100° C. for ten minutes and each 5 μl thereof was applied to two sheets of SDS-PAGE gels (5% stacking gel; 10% separation gel) to conduct anelectrophoresis. One of the gels was Coomassie stained while another gel was subjected to a blotting to a polyvinylidene difluoride transfer membrane (Immobilon™, manufactured by Millipore, catalog no. IPVH000-10). The membrane was subjected to a blocking at 4° C. for one night with Block Ace (manufactured by Dainippon Pharmaceutical; catalog no. UK-B25).
The blocked membrane was made to react with monoclonal antibody HSP 72/73 (Ab-1) (manufactured by Oncogene Research Products, catalog no. HSP01) which would specifically react with heat-induced heat shock protein of 70 kDa and washed with TBS containing 0.05% of Tween 20 followed by further washing with TBS. After that, it was made to react with peroxidase-compounded secondary antibody HRP-Rabbit Anti-Mouse IgG (H+L) (manufactured by Zymed Laboratories, catalog no. 61-6520) and washed by the same manner as in the above operation. The membranes which were treated with primary and secondary antibodies as such were made to react with Renaissance™ (a chemiluminor reagent manufactured by Dupont NEN, catalog no. NEL-100) and photosensitized with an X-ray film to confirm the induction of heat shock protein of 70 kDa.
The result was that, by addition of cyclopentenone (20 to 30 μM), induction of heat shock protein of 70 kDa which is almost same as heat-treated at 45° C. for 10 minutes was confirmed. In Table 1, “+” indicates degree of intensity of induction and the more the numbers of “+”, the more the intensity of induction. Incidentally, “−” means that no induction was noted and “±” means the induction was slight.

[2] = tested on: carcinogenesis caused by a two-stage carcinogenesis on skin; experiment: Two-stage (DMBA/TPA) carcinogenesis on skin of mice; format: in vivo, mice of ICR strain; conditions: mouse, in vivo
Description: Hair on the back of mice of ICR strain (purchased from Nippon SLC; seven weeks age; female) was shaved and DMBA (dimethylbenzanthracene) as an initiator in a form of a solution in acetone was applied thereto at the dose of 50 μg/mouse.
Thus, FIG. 5 is a graph showing the anti-carcinogenic action of the cyclopentenone in which ordinate is a carcinogenic rate while abscissa is time (weeks). In the graph, open triangles, black triangles and open circles stand for a group treated with 2.5 mg of the cyclopentenone per mouse (12 mice in total), a group treated with 0.8 mg of the cyclopentenone per mouse (11 mice in total) and a control group (12 mice in total), respectively.

Ad5 dlX [an adenovirus] = experiment: Adenovirus hexon protein in HeLa cells treated with cyclopentenone before infection; format: cell-based; conditions: Examples 2-(2)~(6)
Description: After that, the cells were washed with the DMEM containing 5% of fetal bovine serum, then the DMEM containing 5% of fetal bovine serum which contained Ad5 dlX [an adenovirus; Saito, etal.; Journal ofVirology, volume 54, pages 711-719 (1985)] was added to the cells so that the cells were infected therewith and incubation was conducted for 20 hours. […] The medium was discarded, 1 ml of 10% trichloroacetic acid was added to each of the wells and the cells were recovered by a scraper.
Then SDS-PAGE and blotting of the treated cells obtained hereinabove were conducted by the method of Example 1 to detect the expression of hexon proteins of the adenovirus. Incidentally, anti-adenovirus hexon antibody (AB 1056; manufactured by Chemicon International Inc.) was used as the primary antibody.

[3] = tested on: vesicular stomatitis virus; conditions: cited from earlier work
Sendai virus = conditions: cited from earlier work

Row | SMILES | induction of heat shock protein of 70 kDa, compared with the cyclopentenone [1] | anti-promoter action in two-stage chemical carcinogenesis, compared with the cyclopentenone [2] | antiviral activity to adenovirus, compared with the cyclopentenone (Ad5 dlX [an adenovirus]) | also measured
1 | O=C1C=C[C@H](O)[C@H]1O (single isomer, unassigned) [(+)-cyclopentenone] | Same results | same result | Same results | 
2 | O=C1C=C[C@@H](O)[C@@H]1O (single isomer, unassigned) [(−)-cyclopentenone] | Same results | same result | Same results | 
3 | O=C1C=CCC1 [2-cyclopenten-1-one] |  |  |  | concentration required for inducing the HSP70 [3]: several hundred; synthesis of HSP70 [3]: induces; synthesis of vesicular stomatitis virus protein [3]: inhibits
4 | CCCCC[C@H](O)/C=C/[C@H]1C=CC(=O)[C@@H]1CCCCCCC(=O)O [prostaglandin Al, prostaglandin A1] |  |  |  | synthesis of HSP70 and HSP90 (Sendai virus; animal cells infected with Sendai virus): induced; synthesis of virus protein (Sendai virus; during the synthesis of HSP70 is induced): inhibited
